Reference: ChEMBL document CHEMBL1131963, “Novel benzo-fused lactam scaffolds as factor Xa inhibitors” (Bioorg Med Chem Lett, 1999)

Key:
Plasminogen = Plasminogen (Homo sapiens, UniProt P00747); experiment: In vitro inhibitory activity against human enzyme plasmin
[1] = Ratio against factor Xa to prothrombinase
Coagulation factor X [2] = target: T1, Coagulation factor X (Homo sapiens, UniProt P00742); experiment: In vitro inhibitory activity against human enzyme Coagulation factor X
Coagulation factor X [3] = target: T1, Coagulation factor X; experiment: In vitro inhibitory activity against human prothrombinase
Prothrombin [4] = target: T2, Prothrombin (Homo sapiens, UniProt P00734); experiment: In vitro inhibitory activity against by human enzyme thrombin
Serine protease 1 [5] = target: T3, Serine protease 1 (Homo sapiens, UniProt P07477); experiment: In vitro evaluation of inhibition of cleavage of the chromogenic substrate by human enzyme trypsin
Prothrombin [6] = target: T2, Prothrombin; experiment: In vitro inhibitory activity against human enzyme thrombin
Serine protease 1 [7] = target: T3, Serine protease 1; experiment: In vitro inhibitory activity against human enzyme trypsin
Coagulation factor X [8] = target: T1, Coagulation factor X; experiment: In vitro inhibitory activity against prothrombinase

T1 sequence (P00742 41-179 limits assumed): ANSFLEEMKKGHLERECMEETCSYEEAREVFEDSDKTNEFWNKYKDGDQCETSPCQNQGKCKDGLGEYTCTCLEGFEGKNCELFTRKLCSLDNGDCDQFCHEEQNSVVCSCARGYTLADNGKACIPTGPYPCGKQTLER
T1 sequence (P00742 235-488 limits assumed): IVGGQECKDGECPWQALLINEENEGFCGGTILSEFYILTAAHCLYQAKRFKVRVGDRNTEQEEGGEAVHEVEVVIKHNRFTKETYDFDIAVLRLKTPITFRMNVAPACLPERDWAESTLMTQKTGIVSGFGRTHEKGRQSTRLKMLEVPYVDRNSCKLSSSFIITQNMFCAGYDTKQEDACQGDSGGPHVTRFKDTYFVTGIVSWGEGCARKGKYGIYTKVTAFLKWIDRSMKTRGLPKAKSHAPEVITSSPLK
Plasminogen, sequence (P00747 97-580 limits assumed): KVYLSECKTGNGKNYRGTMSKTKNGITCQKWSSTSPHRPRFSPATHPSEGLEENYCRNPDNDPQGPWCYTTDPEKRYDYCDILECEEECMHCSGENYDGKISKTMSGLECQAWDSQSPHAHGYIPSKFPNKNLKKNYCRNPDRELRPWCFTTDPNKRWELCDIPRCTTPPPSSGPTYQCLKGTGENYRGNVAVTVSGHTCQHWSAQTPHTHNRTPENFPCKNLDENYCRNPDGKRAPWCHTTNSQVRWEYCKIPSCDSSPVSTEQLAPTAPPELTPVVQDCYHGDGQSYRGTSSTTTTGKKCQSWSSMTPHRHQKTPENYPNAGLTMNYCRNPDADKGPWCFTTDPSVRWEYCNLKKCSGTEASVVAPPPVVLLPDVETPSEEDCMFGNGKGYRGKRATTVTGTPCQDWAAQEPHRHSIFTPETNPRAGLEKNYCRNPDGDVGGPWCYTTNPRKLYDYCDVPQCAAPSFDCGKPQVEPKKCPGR
Plasminogen, sequence (P00747 581-810 limits assumed): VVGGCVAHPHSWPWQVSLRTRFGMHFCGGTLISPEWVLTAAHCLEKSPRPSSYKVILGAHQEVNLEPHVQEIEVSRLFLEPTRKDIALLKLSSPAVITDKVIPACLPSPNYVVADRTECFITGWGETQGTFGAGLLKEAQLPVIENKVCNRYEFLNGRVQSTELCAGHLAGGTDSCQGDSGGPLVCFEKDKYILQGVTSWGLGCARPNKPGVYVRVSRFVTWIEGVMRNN
T3 sequence (P07477 whole entry): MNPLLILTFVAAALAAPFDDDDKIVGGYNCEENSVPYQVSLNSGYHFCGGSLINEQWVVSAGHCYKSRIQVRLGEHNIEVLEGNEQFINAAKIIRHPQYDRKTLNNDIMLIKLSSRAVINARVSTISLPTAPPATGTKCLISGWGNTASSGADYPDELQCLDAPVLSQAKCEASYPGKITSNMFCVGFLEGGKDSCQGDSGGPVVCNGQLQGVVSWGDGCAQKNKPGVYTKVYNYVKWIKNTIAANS

SMILES	IC50 (Plasminogen)	Ratio [1]	IC50 (Coagulation factor X [2])	IC50 (Coagulation factor X [3])	IC50 (Prothrombin [4])	IC50 (Serine protease 1 [5])	IC50 (Prothrombin [6])	IC50 (Serine protease 1 [7])	IC50 (Coagulation factor X [8])
COc1ccc2c(c1)CC[C@H](NS(=O)(=O)c1ccc3ccccc3c1)C(=O)N2CC(=O)N[C@H]1CCCN(C(=N)N)C1O (some centres not stated)	> 2500 nM	5.3	3.6 nM	19.1 nM	285 nM	27 nM			
N=C(N)N1CCC[C@H](NC(=O)CN2C(=O)[C@H](NS(=O)(=O)Cc3ccccc3)CCc3ccccc32)C1O (some centres not stated)	> 2500 nM		49 nM				192 nM	135 nM	
COc1cccc2c1CC[C@H](NS(=O)(=O)Cc1ccccc1)C(=O)N2CC(=O)N[C@H]1CCCN(C(=N)N)C1O (some centres not stated)	> 2500 nM	3.1	8.6 nM	26.7 nM		77 nM	235 nM		
COc1ccc2c(c1)CC[C@H](NS(=O)(=O)CC1CCCCC1)C(=O)N2CC(=O)N[C@H]1CCCN(C(=N)N)C1O (some centres not stated)	> 2500 nM	5.2	1.9 nM				829 nM	1.5 nM	9.9 nM
N=C(N)N1CCC[C@H](NC(=O)CN2CCCC[C@H](NS(=O)(=O)Cc3ccccc3)C2=O)C1O (some centres not stated)	> 2500 nM		20.6 nM					75 nM	
COc1ccc2c(c1)CC[C@H](NS(=O)(=O)Cc1ccccc1)C(=O)N2CC(=O)N[C@H]1CCCN(C(=N)N)C1O (some centres not stated)	> 2500 nM	4.8	7.2 nM	34.9 nM		110 nM	> 2500 nM		
N=C(N)N1CCC[C@H](NC(=O)CN2C(=O)[C@@H](NS(=O)(=O)Cc3ccccc3)CCc3ccccc32)C1O (some centres not stated)	> 2500 nM	2.3	7.3 nM	17.1 nM			178 nM	26 nM	
N=C(N)N1CCC[C@H](NC(=O)CN2C(=O)C(NS(=O)(=O)Cc3ccccc3)Cc3ccccc32)C1O (some centres not stated)	> 2500 nM		> 2500 nM				17.9 nM	289 nM	
COc1ccc2c(c1)N(CC(=O)N[C@H]1CCCN(C(=N)N)C1O)C(=O)[C@@H](NS(=O)(=O)Cc1ccccc1)CC2 (some centres not stated)	> 2500 nM	2.2	28.9 nM	64.3 nM		40 nM	> 2500 nM		
